Experiment [1] deals with HbAlc. The experiment in a line: Phase 2 placebo-controlled clinical trial, HbAlc in whole blood. Particulars: for least square mean HbAlc value: 600 mg twice daily, preliminary, FIG. 1. The experiment is classed as in vivo, human. The procedure: A Phase 2 placebo-controlled clinical trial of Compound (V) was conducted in patients with type 2 diabetic kidney disease and macroalbuminuria. The purpose of the trial was to compare Compound (V) to placebo in terms of safety and efficacy with respect to measures of renal function such as urinary albumin to creatinine ratio, serum creatinine levels, and estimated glomerular filtration rate. HbAlc was measured but was not an intended endpoint of the trial. Thus, while the study was controlled for other medications, it was not controlled for anti-glycemic medications nor were the placebo and treated groups matched for baseline HbAlc levels.
All patients enrolled in the clinical trial were concurrently treated with angiotensin modulators. The clinical trial consists of three parts, two of which were completed and a third part that is on-going. Part 1 was a double-blind, parallel, two-arm, placebo-controlled study evaluating the safety and efficacy of 600 mg of Compound (V) twice daily for 24 weeks. 182 patients were enrolled in this first part of the trial. Part 2 was a blinded 24-week extension study in which all patients who completed Part 1 were eligible to continue receiving 600 mg of Compound (V) or placebo twice daily. 143 patients were enrolled in this part of the clinical trial and have completed dosing. 123 of the 143 patients that were enrolled in Part 2 of the clinical trial completed Part 2. The combined 48 weeks of data from Parts 1 and 2 of the clinical trial have been analyzed. 102 patients enrolled in Part 3 which is a 48 week open-label extension study that is on-going. All patients who completed Part 2 were eligible to receive 600 mg of Compound (V) twice daily.
The key criteria for patients to be included in the clinical trial were (a) eGFR from 23 to 89 mL/min/1.73 m2, a measure of kidney function which indicates mild to moderately severe type 2 diabetic kidney disease; (b) having been on a stable angiotensin modulation regimen for a minimum of four weeks prior to initiating screening and nine weeks prior to initiating dosing; (c) blood pressure less than or equal to 145/90 mm Hg; (d) glycosylated hemoglobin Alc (HbAlc) less than or equal to 10.5%; and (e) UACR greater than or equal to 200 mg/g in male patients and 300 mg/g in female patients, ratios of albumin to creatinine that are indicative of substantial kidney damage in men and women, but not more than 5,000 mg/g, a ratio indicative of severe kidney disease. HbAlc in whole blood samples was measured by ion-exchange chromatography using a TOSOH HLC-723G8 HPLC analyzer.
The procedure is similar to the one described in the Laboratory Procedure Manual of the Centers for Disease Control and Prevention. See www.cdc.gov/nchs/data/nhanes/nhanes_11_12/GHB_met_G_Tosoh_G8.pdf. The TOSOH instrument can reliably detect HbAlc levels in the range of 4.0-16.8%.
Patients were sampled at weeks 0, 12, 24, 36 and 48 weeks (see FIG. 1). The value at 0 weeks was calculated as the mean of values recorded on Days −28, −7 and −1. In other words, the patients were tested 4 weeks before the trial, one week before the trial and one day before. The mean value of the measurements was recorded as Day 0 for the trial.

In experiment [2] the test system is HbAlc. The following applies: 100 patients with type 2 diabetes; cited from earlier work.

Regarding `[2H]C([2H])([2H])[C@H](O)C([2H])([2H])CCCn1c(=O)c2c(ncn2C)n(C)c1=O` [Compound (V)], the “lowering of HbAlc in the treated group relative to placebo” value in the experiment on HbAlc [1] (Part 1 and Part 2 (48 weeks), p=0.0001) was “statistically significant”. Moreover, the “least square mean HbAlc value” in the experiment on HbAlc [1] (after Part 1 and Part 2 of the trial (48 weeks)) came to 7.1; in the experiment with HbAlc [1] (beginning of the trial (week 0, mean of Days -28, -7 and -1), patients with type 2 diabetic kidney disease and macroalbuminuria), 7.7. Also, the “effect on hemoglobin glycosylation” value with HbAlc [1] (group receiving compound, sampled at weeks 0, 12, 24, 36 and 48) is “positive effect”. Further, the “drop in AlC” value with HbAlc [1] (overall group change from baseline, FIG. 2 (week 12), placebo 0.23 increase, statistically significant) was 0.35. Further, the “patients with lower HbAlc after 12 weeks” value in the experiment on HbAlc [1] (week 12 change from baseline, number of patients/patients in arm, FIG. 2, placebo 33/79) is 57/83.
Regarding `CC(=O)CCCCn1c(=O)c2c(ncn2C)n(C)c1=O` [Pentoxifylline], the “effect on HbAlC” value in the experiment on HbAlc [2] is reported as “no effect”.

Source of the values: patent US20170216296A1, “METHODS OF TREATING HYPERGLYCEMIA” (Concert Pharmaceuticals, Inc., priority 2014, published 2017).
